From publication PMC3153478, “Structural Basis for Species Specific Inhibition of 17β-Hydroxysteroid Dehydrogenase Type 1 (17β-HSD1): Computational Study and Biological Validation” (PLoS ONE, 2011)
Read-outs that look alike come from different tables or passages of the source.

Assays:
human 17β-HSD1 = system: human 17β-HSD1; set-up: method as in earlier work; details: Human placental, cytosolic fraction, substrate E1, 500 nM, cofactor NADH, 500 µM; ref literature (references indicated with the structural formulas in Fig. 3); read-out: Human IC50 17ß-HSD1; cited from earlier work
marmoset 17β-HSD2 = marmoset 17β-HSD2 (Callithrix jacchus, UniProt U3BEV1); experiment: Inhibition of marmoset 17β-HSD2 (placental microsomes, tritiated E2, HPLC); assay type: biochemical, marmoset monkey (callithrix jacchus); details: Logit transformed values calculated from % inhibition at 50 nM inhibitor concentration (trend for <30% or >70%), placental microsomal fraction, substrate E2 500 nM, NAD+ 1500 µM; for IC50: read-out: Marmoset IC50 17ß-HSD2
Chain of marmoset 17β-HSD2 (U3BEV1 entry or part of it): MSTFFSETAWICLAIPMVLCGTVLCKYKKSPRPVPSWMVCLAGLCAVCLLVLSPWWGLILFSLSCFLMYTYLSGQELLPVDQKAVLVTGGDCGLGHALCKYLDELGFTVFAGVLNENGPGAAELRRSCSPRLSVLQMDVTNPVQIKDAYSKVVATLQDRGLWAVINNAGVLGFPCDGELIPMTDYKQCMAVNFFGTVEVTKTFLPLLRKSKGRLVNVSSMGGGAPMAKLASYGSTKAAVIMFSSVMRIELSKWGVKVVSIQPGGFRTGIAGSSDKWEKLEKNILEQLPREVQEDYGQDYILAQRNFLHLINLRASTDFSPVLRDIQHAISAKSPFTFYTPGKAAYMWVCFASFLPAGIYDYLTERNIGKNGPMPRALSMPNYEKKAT
Description: (§1) Marmoset placental tissue was used as enzyme source and the proteins were partially purified following a described procedure. Tritiated E1 was incubated with 17β-HSD1, cofactor and inhibitor. The separation of substrate and product was performed by HPLC. In an assay similar to the 17β-HSD1 test, marmoset placental microsomes containing 17β-HSD2 were incubated with tritiated E2 in the presence of NAD^+ and inhibitor. Labelled product was quantified after HPLC separation.
(§2) [2, 4, 6, 7-^3H]-E1 and [2, 4, 6, 7-^3H]-E2 were bought from Perkin Elmer, Boston. Quickszint Flow 302 scintillator fluid was bought from Zinsser Analytic, Frankfurt. Marmoset 17β-HSD1 and 17β-HSD2 were obtained from marmoset placenta according to previously described procedures. Fresh marmoset placenta was homogenized and cytosolic and microsomal fractions were separated by centrifugation. For the partial purification of 17β-HSD1, the cytosolic fraction was precipitated with ammonium sulfate. 17β-HSD2 was obtained from the microsomal fraction.
The 17β-HSD2 inhibition assay was performed similarly to the 17β-HSD1 procedure. The microsomal fraction was incubated with NAD^+ [1500 µM], test compound and a mixture of unlabelled- and [2, 4, 6, 7-^3H]-E2 (final concentration: 500 nM, 0.11 µCi) for 20 min at 37°C. Further treatment of the samples and HPLC separation was carried out as mentioned above. The conversion rate was calculated after analysis of the resulting chromatograms according to the following equation: [drawing 2] .

marmoset 17β-HSD1 = molecular target: T1, marmoset 17β-HSD1 (Callithrix jacchus, UniProt Q9GME2); experiment: Inhibition of marmoset 17β-HSD1 (placental cytosolic fraction, tritiated E1, HPLC); assay type: biochemical, marmoset monkey (callithrix jacchus); details: for IC50: read-out: Marmoset IC50 17ß-HSD1
T1 construct: For the partial purification of 17β-HSD1, the cytosolic fraction was precipitated with ammonium sulfate; from tissue; host or cells: marmoset placenta, cytosolic fraction, ammonium sulfate precipitate
T1 sequence (Q9GME2 1-314): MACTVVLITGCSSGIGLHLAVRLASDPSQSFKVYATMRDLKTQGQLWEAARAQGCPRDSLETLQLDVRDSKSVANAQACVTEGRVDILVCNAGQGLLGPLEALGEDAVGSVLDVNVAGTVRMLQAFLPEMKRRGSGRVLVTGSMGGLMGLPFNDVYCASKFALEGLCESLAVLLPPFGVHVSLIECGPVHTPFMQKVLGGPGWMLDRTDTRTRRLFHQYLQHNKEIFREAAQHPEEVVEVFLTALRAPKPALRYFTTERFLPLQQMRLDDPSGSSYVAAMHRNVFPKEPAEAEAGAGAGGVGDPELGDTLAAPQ
Description: as §1, §2
Inhibitory activities were evaluated by an established method with minor modifications. Briefly, the enzyme preparation was incubated with NADH [500 µM] in the presence of potential inhibitors at 37°C in a phosphate buffer (50 mM) supplemented with 20% of glycerol and EDTA (1 mM). Inhibitor stock solutions were prepared in DMSO. The final concentration of DMSO was adjusted to 1% in all samples. The enzymatic reaction was started by addition of a mixture of unlabelled- and [2, 4, 6, 7-^3H]-E1 (final concentration: 500 nM, 0.15 µCi). After 10 min, the reaction was stopped by the addition of HgCl2 (10 mM) and the mixture was extracted with diethylether. After evaporation, the steroids were dissolved in acetonitrile. E1 and E2 were separated using acetonitrile/water (45∶55) as mobile phase in a C18 reverse phase chromatography column (Nucleodur C18 Gravity, 3 µm, Macherey-Nagel, Düren) connected to an HPLC-system (Agilent 1200 Series, Agilent Technologies, Waldbronn). Detection and quantification of the steroids were performed using a radioflow detector (Agilent 1200 Series, Agilent Technologies, Waldbronn). The conversion rate was calculated after analysis of the resulting chromatograms according to the following equation: [drawing 1] . Each value was calculated from at least three independent experiments.

human 17β-HSD2 = system: human 17β-HSD2; set-up: method as in earlier work; details: Human placental, microsomal fraction, substrate E2, 500 nM, cofactor NAD+, 1500 µM; ref literature (references indicated with the structural formulas in Fig. 3); read-out: Human IC50 17ß-HSD2; cited from earlier work
[1] = Logit transformed values calculated from % inhibition at 50 nM inhibitor concentration (trend for <30% or >70%), placental cytosolic fraction, substrate E1 500 nM, NADH 500 µM
[2] = Logit transformed values calculated from % inhibition, inhibitor concentration: 5 nM, placental cytosolic fraction, substrate E1 500 nM, NADH 500 µM

Row | Compound | IC50 (human 17β-HSD1) | IC50 (marmoset 17β-HSD2) | IC50 (marmoset 17β-HSD1; [1]) | IC50 (human 17β-HSD2) | Inhibitory potency toward marmoset 17β-HSD1 compared to the human enzyme (marmoset 17β-HSD1; comparison in words, marmoset vs human 17β-HSD1) | Marmoset IC50 17ß-HSD2 (marmoset 17β-HSD2) | Marmoset IC50 17ß-HSD1 (marmoset 17β-HSD1; [1]) | IC50 (marmoset 17β-HSD1; [2]) | IC50 (marmoset 17β-HSD1)
1 | Oc1cccc(-c2ccc3c(-c4cccc(O)c4)c(O)ccc3c2)c1 [Compound 15] | 36 nM | > 50 nM | 32 nM | 959 nM |  |  |  |  | 
2 | O=C(c1cccc(O)c1)c1ccc(-c2ccc(O)cc2)s1 [Compound 12] | 33 nM | 43 nM | < 50 nM | 478 nM | Comparable inhibition data |  |  |  | 
3 | CC(=O)Nc1cccc(-c2c(O)ccc3cc(-c4cccc(O)c4)ccc23)c1 [Compound 20] | 83 nM |  | > 50 nM | 1240 nM |  | n.i. |  |  | 
4 | Cc1cc(-c2ccc(-c3cccc(O)c3)s2)ccc1O [Compound 4] | 46 nM | > 50 nM | < 50 nM | 1970 nM |  |  |  |  | 
5 | Nc1cccc(-c2c(O)ccc3cc(-c4cccc(O)c4)ccc23)c1 [Compound 18] | 53 nM | > 50 nM |  |  |  |  | n.i. |  | 
6 | Oc1cc(F)cc(-c2ccc(-c3ccc(O)c(F)c3)s2)c1 [Compound 7] | 17 nM | 43 nM |  | 218 nM |  |  |  | < 5 nM | 
7 | Oc1cccc(-c2ccc3c(-c4ccccc4)c(O)ccc3c2)c1 [Compound 17] | 20 nM | > 50 nM | 52 nM | 540 nM |  |  |  |  | 
8 | Oc1cccc(-c2ccc3cc(O)ccc3c2)c1 [Compound 14] | 116 nM |  |  | 5640 nM |  |  |  |  | > 50 nM
9 | Oc1ccc(-c2cnc(-c3cccc(O)c3)s2)cc1 [Compound 2] | 50 nM | > 50 nM | 102 nM | 4000 nM |  |  |  |  | 
10 | Oc1cccc(-c2ccc(-c3ccc(O)c(F)c3)s2)c1 [Compound 1] | 8 nM | > 50 nM |  | 940 nM |  |  |  | < 5 nM | 
11 | Oc1ccc(-c2ccc(-c3cccc(O)c3)s2)cc1 [Compound 3] | 69 nM | > 50 nM | 31 nM | 1950 nM |  |  |  |  | 
12 | Oc1cccc(-c2ccc3c(-c4cccnc4)c(O)ccc3c2)c1 [Compound 16] | 26 nM | > 50 nM | > 50 nM | 1160 nM |  |  |  |  | 
13 | CS(=O)(=O)Nc1cccc(-c2c(O)ccc3cc(-c4cccc(O)c4)ccc23)c1 [Compound 19] | 15 nM | > 50 nM | > 50 nM | 403 nM |  |  |  |  | 
14 | Cc1cc(-c2cnc(-c3cccc(O)c3)s2)ccc1O [Compound 5] | 143 nM | > 50 nM | < 50 nM | 2020 nM |  |  |  |  | 
15 | Oc1ccc(-c2ccc(-c3cc(O)cc(F)c3)s2)cc1 [Compound 6] | 42 nM | 85 nM |  | 463 nM |  |  |  | < 5 nM | 
